Laboratory results from patent US20070196359A1, “Halosuccinimide biocide” (Minntech Corporation, priority 2006, published 2007).

Assays:
[1] = tested on: M. terrae mycobacteria; test: Efficacy against mycobacteria (FIG. 2); assay type: cell-based; settings: for time to total kill of mycobacteria: pH 7.4
Procedure: The NCS biocide solution included about 1% NCS, was buffered at a pH of about 4 and was tested at 20° C. The NBS biocide solution included about 1% NBS, was buffered at a pH of about 3 and was tested at 20° C. Each solution produced a total kill corresponding to a 6 log reduction of the mycobacteria.

[2] = tested on: B. subtilis bacterial spores; test: Efficacy against bacterial endospores (FIG. 1); assay type: cell-based
Procedure: The NCS biocide solution included about 1% NCS and was buffered at a pH of about 4. The NBS biocide solution included about 1% NBS and was buffered at pH about 3. […] In the case of NCS, a total kill corresponding to a 6 log reduction occurred over a period of approximately 30 minutes. In the case of NBS, a total kill corresponding to a 6 log reduction occurred over a period of approximately 60 minutes.

[3] = Stability of the biocide solution over time, active ingredient by iodometric titration (FIG. 3); assay type: physicochemical
Description: The NBS biocide solution included about 1.0% NBS, 0.19% surfactant L-44 and was at a pH of about 3. The NCS biocide solution included about 1.0% NCS, 0.19% surfactant and was at a pH of about 3.

[4] = about 1% NBS, buffered at pH about 3, 20° C
[5] = about 1% NCS, buffered at pH about 4, 20° C

Row | Compound | time to total kill [1, 4] | total kill, log reduction of the mycobacteria [1, 4] | time to total kill of mycobacteria [1] | period to total kill (6 log reduction) [2, 4] | total kill, log reduction in the bacteria [2, 4] | stability over time ([3]; about 1.0% NBS, 0.19% surfactant L-44, pH about 3, increasing amounts of succinimide added, best at 9.0%) | time to total kill [1, 5] | total kill, log reduction of the mycobacteria [1, 5] | period to total kill (6 log reduction) [2, 5] | total kill, log reduction in the bacteria [2, 5] | stability over time compared to NCS alone ([3]; about 1.0% NCS, 0.19% surfactant, pH about 3, 4.8% succinimide added)
1 | O=C1CCC(=O)N1Br [NBS, N-bromosuccinimide] | about 30 seconds | 6 log | about 175 seconds | approximately 60 minutes | 6 log | improved stability over time | – | – | – | – | –
2 | O=C1CCC(=O)N1Cl [NCS, N-chlorosuccinimide] | – | – | about 90 seconds | – | – | – | about 30 seconds | 6 log | approximately 30 minutes | 6 log | improved stability
